One block for each compound: values may come before it.
Columns and labels:
Assay type in all cases: cell-based
[1] = target: T1, S1P4-R (human Endothelial Differentiation Gene 6; EDG6) (Homo sapiens, UniProt O95977); assay: Tango S1P4-BLA U2OS beta-arrestin/beta-lactamase reporter agonist assay; details: for S1P4-R agonist activity in words: concentrations up to 25 μM; for fold decrease in potency compared to the hit 2 / fold more potent than the hit 2: S1P4-R EC50 ratio vs hit 2; for fold less potent than 22p: S1P4-R EC50 ratio vs 22p
T1 sequence (O95977 1-384): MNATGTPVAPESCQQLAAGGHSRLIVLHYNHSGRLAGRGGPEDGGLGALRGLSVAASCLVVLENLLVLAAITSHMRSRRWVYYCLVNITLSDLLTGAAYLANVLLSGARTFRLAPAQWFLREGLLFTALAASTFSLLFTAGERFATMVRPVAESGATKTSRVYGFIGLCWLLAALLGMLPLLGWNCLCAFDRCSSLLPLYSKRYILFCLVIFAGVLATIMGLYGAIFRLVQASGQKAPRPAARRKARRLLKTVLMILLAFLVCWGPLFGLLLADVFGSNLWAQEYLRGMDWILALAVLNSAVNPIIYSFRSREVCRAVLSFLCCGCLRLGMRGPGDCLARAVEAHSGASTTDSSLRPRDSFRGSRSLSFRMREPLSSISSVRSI

S1P2-R = S1P2-R (Homo sapiens, UniProt O95136); assay: S1P1–3,5-Rs selectivity counter screen, S1P2-R; details: mean of n = 3; NA = not active at concentrations up to 25 μM
Chain of S1P2-R (O95136 whole entry): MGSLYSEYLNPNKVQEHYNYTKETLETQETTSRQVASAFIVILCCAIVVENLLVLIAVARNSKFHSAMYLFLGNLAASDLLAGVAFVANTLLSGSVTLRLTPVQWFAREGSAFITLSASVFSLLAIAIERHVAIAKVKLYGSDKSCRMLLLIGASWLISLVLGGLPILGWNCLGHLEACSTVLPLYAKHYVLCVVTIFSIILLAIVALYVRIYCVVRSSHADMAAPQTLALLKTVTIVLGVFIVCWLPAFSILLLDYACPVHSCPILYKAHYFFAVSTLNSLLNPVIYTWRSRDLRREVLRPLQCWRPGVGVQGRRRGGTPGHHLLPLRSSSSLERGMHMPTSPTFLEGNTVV

S1P1-R = S1P1-R (Homo sapiens, UniProt P21453); assay: S1P1–3,5-Rs selectivity counter screen, S1P1-R; details: mean of n = 3; NA = not active at concentrations up to 25 μM
Chain of S1P1-R (P21453 whole entry): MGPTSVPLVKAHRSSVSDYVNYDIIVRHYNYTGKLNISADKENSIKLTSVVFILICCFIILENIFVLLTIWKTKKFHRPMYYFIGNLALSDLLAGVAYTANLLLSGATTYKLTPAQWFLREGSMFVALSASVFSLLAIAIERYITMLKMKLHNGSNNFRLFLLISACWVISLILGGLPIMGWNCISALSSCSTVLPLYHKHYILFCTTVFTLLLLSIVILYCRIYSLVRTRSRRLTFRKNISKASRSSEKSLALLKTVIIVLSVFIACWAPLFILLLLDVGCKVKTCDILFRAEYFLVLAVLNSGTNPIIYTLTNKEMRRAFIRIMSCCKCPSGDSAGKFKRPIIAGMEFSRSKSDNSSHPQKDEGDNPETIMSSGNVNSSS

S1P5-R = S1P5-R (Homo sapiens, UniProt Q9H228); assay: S1P1–3,5-Rs selectivity counter screen, S1P5-R; details: mean of n = 3; NA = not active at concentrations up to 25 μM
Chain of S1P5-R (Q9H228 whole entry): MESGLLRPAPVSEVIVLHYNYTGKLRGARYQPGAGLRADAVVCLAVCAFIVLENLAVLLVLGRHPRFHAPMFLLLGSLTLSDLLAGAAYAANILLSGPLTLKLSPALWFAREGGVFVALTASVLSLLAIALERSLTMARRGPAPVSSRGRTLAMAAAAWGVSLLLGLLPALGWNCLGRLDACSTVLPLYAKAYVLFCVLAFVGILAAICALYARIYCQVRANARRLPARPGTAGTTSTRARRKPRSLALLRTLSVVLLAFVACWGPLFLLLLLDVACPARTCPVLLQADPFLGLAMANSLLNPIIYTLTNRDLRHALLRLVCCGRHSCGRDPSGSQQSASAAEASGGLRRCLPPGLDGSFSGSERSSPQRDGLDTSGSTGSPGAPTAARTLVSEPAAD

S1P3-R = S1P3-R (Homo sapiens, UniProt Q99500); assay: S1P1–3,5-Rs selectivity counter screen, S1P3-R; details: mean of n = 3; NA = not active at concentrations up to 25 μM
Chain of S1P3-R (Q99500 whole entry): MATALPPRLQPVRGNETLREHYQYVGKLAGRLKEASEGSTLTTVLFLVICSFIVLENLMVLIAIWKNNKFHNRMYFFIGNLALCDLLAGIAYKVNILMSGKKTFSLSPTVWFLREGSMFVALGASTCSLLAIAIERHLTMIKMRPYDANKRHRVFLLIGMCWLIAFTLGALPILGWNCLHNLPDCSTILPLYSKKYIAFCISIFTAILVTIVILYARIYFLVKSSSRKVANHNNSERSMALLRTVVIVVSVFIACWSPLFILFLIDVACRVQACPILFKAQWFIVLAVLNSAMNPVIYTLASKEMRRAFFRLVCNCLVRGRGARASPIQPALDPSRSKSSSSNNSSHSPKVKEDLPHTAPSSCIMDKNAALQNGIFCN

Compound: Cc1ccc(OC(=O)COc2ccc(Cl)cc2Cl)c([N+](=O)[O-])n1 [13d]
- S1P4-R agonist activity in words [1]: complete loss of activity

Compound: Cc1ccc(OCCOc2cc(Cl)cc([N+](=O)[O-])c2)c([N+](=O)[O-])n1 [8q]
- fold decrease in potency compared to the hit 2 [1]: 22 fold

Compound: Cc1ccc(OCCOc2ccc(Cl)cc2Cl)c([N+](=O)[O-])n1 [compound 2, 3-(2-(2,4-dichlorophenoxy)ethoxy)-6-methyl-2-nitropyridine]
- EC50 nM, S1P2-R (S1P2-R): no agonistic activity
- EC50 nM, S1P1-R (S1P1-R): no agonistic activity
- EC50 nM, S1P5-R (S1P5-R): no agonistic activity
- EC50 nM, S1P3-R (S1P3-R): no agonistic activity

Compound: Cc1ccc(OCCOc2ccccc2)c([N+](=O)[O-])n1 [8f]
- S1P4-R agonist activity in words [1]: complete loss of activity

Compound: Cc1ccc(OCCCOc2ccc(Cl)cc2Cl)c([N+](=O)[O-])n1 [13a]
- S1P4-R agonist activity in words [1]: complete loss of activity

Compound: Cc1ccc(OCCCc2ccc(Cl)cc2Cl)c([N+](=O)[O-])n1 [13b]
- fold decrease in potency compared to the hit 2 [1]: 5–6 fold

Compound: Cc1ccc(OCCOc2ccc(Cl)cc2)c([N+](=O)[O-])n1 [8b]
- S1P4-R agonist activity in words [1]: complete loss of activity

Compound: Cc1ccc(OCCOc2c(Cl)cc(Cl)cc2Cl)c([N+](=O)[O-])n1 [8s]
- fold decrease in potency compared to the hit 2 [1]: 3 fold

Compound: Cc1ccc(OCCOc2ccc(Br)cc2C(F)(F)F)c([N+](=O)[O-])n1 [8r]
- fold less potent than 8h ([1]; S1P4-R EC50 ratio vs 2-chloro analog 8h): 3 fold

Compound: Cc1ccc(OCCOc2ccccc2Cl)c([N+](=O)[O-])n1 [8a]
- S1P4-R agonist activity in words [1]: complete loss of activity

Other lines, results leading:

- fold more potent than the hit 2 [1]: 3.5 fold
Compound: FCc1ccc(OCCOc2ccc(Cl)cc2Cl)c(Cl)n1 [22aa]

- fold less potent than 22l ([1]; S1P4-R EC50 ratio vs 22l): 4 fold
- fold more potent than 22m ([1]; S1P4-R EC50 ratio vs 22m): 6 fold
Compound: Fc1ccc(OCCOc2ccc(Cl)cc2Cl)c(Br)n1 [22o]

- fold more potent than the hit 2 [1]: 3 fold
Compound: Clc1ccc(OCCOc2ccc(Br)nc2Br)c(Cl)c1 [22n]

- fold decrease in potency compared to the hit 2 [1]: 8 fold
Compound: Cc1ccc(OCCOc2ccc(Cl)cc2Cl)c([N+](=O)[O-])c1 [22c]

- fold decrease in potency compared to the hit 2 [1]: 18 fold
Compound: O=[N+]([O-])c1ncccc1OCCOc1ccc(Cl)cc1Cl [22a]

- fold less potent than 22p [1]: 4 fold
Compound: OCc1ccc(OCCOc2ccc(Cl)cc2Cl)c(I)n1 [22t]

- fold more potent than the hit 2 [1]: 3 fold
Compound: Cc1ccc(OCCOc2ccc(Cl)cc2Cl)c(Br)n1 [22l]

- fold less active than the 2-iodine counterpart 22t ([1]; S1P4-R EC50 ratio vs 22t): 5 fold
Compound: OCc1ccc(OCCOc2ccc(Cl)cc2Cl)c(Cl)n1 [22v]

- fold less potent than 22p [1]: 38 fold
Compound: O=Cc1ccc(OCCOc2ccc(Cl)cc2Cl)c(I)n1 [22u]

- fold decrease in potency compared to the hit 2 [1]: 2 fold
Compound: O=[N+]([O-])c1nc(Cl)ccc1OCCOc1ccc(Cl)cc1Cl [22d]

— paper PMC3248976 (Bioorganic & medicinal chemistry letters, 2011)
